In brackets after ≈: the same amount, converted by molar mass.
Experiments:
[1] = molecular target: recombinant human Estrogen Receptor alpha ligand binding domain (ER alpha-LBD (GST)) (Homo sapiens (Human), UniProt P03372); assay: ERα binding assay (LanthaScreen TR-FRET competition)
Experimental: The ability of compounds to bind to isolated Estrogen Receptor Alpha Ligand binding domain (ER alpha—LBD (GST)) was assessed in competition assays using a LanthaScreen Time-Resolved Fluorescence Resonance Energy Transfer (TR-FRET) detection end-point. For the LanthaScreen TR-FRET endpoint, a suitable fluorophore (Fluormone ES2, ThermoFisher, Product code P2645) and recombinant human Estrogen Receptor alpha ligand binding domain, residues 307-554 (expressed and purified in-house) were used to measure compound binding. The assay principle is that ER alpha-LBD (GST) is added to a fluorescent ligand to form a receptor/fluorophore complex. A terbium-labelled anti-GST antibody (Product code PV3551) is used to indirectly label the receptor by binding to its GST tag, and competitive binding is detected by a test compound's ability to displace the fluorescent ligand, resulting in a loss of TR-FRET signal between the Tb-anti-GST antibody and the tracer. The assay was performed as follows with all reagent additions carried out using the Beckman Coulter BioRAPTR FRD microfluidic workstation: • 1. Acoustic dispense 120 nL of the test compound into a black low volume 384 well assay plates. • 2. Prepare 1× ER alpha-LBD/Tb-antiGST Ab in ES2 screening buffer and incubate for 15 minutes. • 3. […] Cover the assay plate to protect the reagents from light and evaporation, and incubate at room temperature for 4 hours. • 5. Excite at 337 nm and measure the fluorescent emission signal of each well at 490 nm and 520 nm using the BMG PheraSTAR.
TR-FRET dose response data obtained with each compound was exported into a suitable software package (such as Origin or Genedata) to perform curve fitting analysis. Competitive ER alpha binding was expressed as an IC50 value.

[2] = Log D (shake flask, 1-octanol/aqueous buffer); assay type: physicochemical
[3] = Thermodynamic solubility (shake-flask); assay type: physicochemical; settings: thermodynamic from solid, phosphate buffer pH 7.4, 24 hours
[4] = molecular target: Estrogen Receptor (ERα) in MCF-7 cells (Homo sapiens (Human), UniProt P03372); assay: MCF-7 ER down-regulation assay (immuno-fluorescence); assay type: cell-based; settings: for % downregulation (in brackets): maximum downregulation
Experimental: The ability of compounds to down-regulate Estrogen Receptor (ER) numbers was assessed in a cell based immuno-fluorescence assay using the MCF-7 human ductal carcinoma breast cell line. MCF-7 cells were revived directly from a cryovial (approx 5×10^6 cells) in Assay Medium (phenol red free Dulbecco's Modified Eagle's medium (DMEM); Sigma D5921) containing 2 mM L-Glutamine and 5% (v/v) Charcoal/Dextran treated foetal calf serum. Cells were syringed once using a sterile 18G×1.5 inch (1.2×40 mm) broad gauge needle and cell density was measured using a Coulter Counter (Beckman). […] Following cell seeding, plates were incubated overnight at 37° C., 5% CO2 (Liconic carousel incubator). Test data was generated using the LabCyte Echomodel 555 compound reformatter which is part of an automated workcell (Integrated Echo 2 workcell). Compound stock solutions (10 mM) of the test compounds were used to generate a 384 well compound dosing plate (Labcyte P-05525-CV1). […] 40 μL of DMSO added to wells in row P on the source plate allowed for DMSO normalisation across the dose range. To dose the control wells 40 μL of DMSO was added to row O1 and 40 μL of 100 μM fulvestrant in DMSO was added to row O3 on the compound source plate.
The Echo uses acoustic technology to perform direct microplate-to-microplate transfers of DMSO compound solutions to assay plates. The system can be programmed to transfer volumes as low as 2.5 nL in multiple increments between microplates and in so doing generates a serial dilution of compound in the assay plate which is then back-filled to normalise the DMSO concentration across the dilution range. […] The fixing method described above was carried out on the Integrated Echo 2 workcell. Immunostaining was performed using an automated AutoElisa workcell. The PBS/Proclin was aspirated from all wells and the cells permeabilised with 40 μL PBS containing 0.5% Tween™ 20 (v/v) for 1 hour at room temperature. The plates were washed three times in 250 μL of PBS/0.05% (v/v) Tween 20 with Proclin (PBST with a Biocide preservative) and then 20 μL of ERα (SP1) Rabbit monoclonal antibody (Thermofisher) 1:1000 in PBS/Tween™/3% (w/v) Bovine Serum Albumin was added. The plates were incubated overnight at 4° C. (Liconic carousel incubator) and then washed three times in 250 μL of PBS/0.05% (v/v) Tween™ 20 with Proclin (PBST). The plates were then incubated with 20 μL/well of a goat anti-rabbit IgG AlexaFluor 594 or goat anti-rabbit AlexaFluor 488 antibody (Molecular Probes) with Hoechst at 1:5000 in PBS/Tween™/3% (w/v) Bovine Serum Albumin for 1 hour at room temperature. The plates were then washed three times in 250 μL of PBS/0.05% (v/v) Tween™ 20 with Proclin (PBST with a Biocide preservative). 20 μL of PBS was added to each well and the plates covered with a black plate seal and stored at 4° C. before being read. […] The mean total intensity was normalized for cell number giving the total intensity per cell. The data was exported into a suitable software package (such as Origin) to perform curve fitting analysis.

[5] = Human plasma protein binding (equilibrium dialysis); assay type: in vitro ADME
hERG potassium channel = hERG potassium channel (Homo sapiens (Human), UniProt Q12809)
[6] = 1-octanol/aqueous buffer, pH 7.4, pH 7.4
[7] = aqueous phosphate buffer, 25 °C, pH 7.4, aqueous buffer

recombinant human Estrogen Receptor alpha ligand binding domain (ER alpha-LBD (GST)), sequence (P03372 307-554): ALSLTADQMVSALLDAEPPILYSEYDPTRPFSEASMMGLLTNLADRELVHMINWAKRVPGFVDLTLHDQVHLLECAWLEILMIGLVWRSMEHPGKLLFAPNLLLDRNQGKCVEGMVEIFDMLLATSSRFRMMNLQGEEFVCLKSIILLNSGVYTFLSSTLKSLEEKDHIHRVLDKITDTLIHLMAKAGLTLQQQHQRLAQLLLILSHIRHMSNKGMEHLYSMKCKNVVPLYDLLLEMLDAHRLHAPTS
Estrogen Receptor (ERα) in MCF-7 cells, sequence (P03372 whole entry): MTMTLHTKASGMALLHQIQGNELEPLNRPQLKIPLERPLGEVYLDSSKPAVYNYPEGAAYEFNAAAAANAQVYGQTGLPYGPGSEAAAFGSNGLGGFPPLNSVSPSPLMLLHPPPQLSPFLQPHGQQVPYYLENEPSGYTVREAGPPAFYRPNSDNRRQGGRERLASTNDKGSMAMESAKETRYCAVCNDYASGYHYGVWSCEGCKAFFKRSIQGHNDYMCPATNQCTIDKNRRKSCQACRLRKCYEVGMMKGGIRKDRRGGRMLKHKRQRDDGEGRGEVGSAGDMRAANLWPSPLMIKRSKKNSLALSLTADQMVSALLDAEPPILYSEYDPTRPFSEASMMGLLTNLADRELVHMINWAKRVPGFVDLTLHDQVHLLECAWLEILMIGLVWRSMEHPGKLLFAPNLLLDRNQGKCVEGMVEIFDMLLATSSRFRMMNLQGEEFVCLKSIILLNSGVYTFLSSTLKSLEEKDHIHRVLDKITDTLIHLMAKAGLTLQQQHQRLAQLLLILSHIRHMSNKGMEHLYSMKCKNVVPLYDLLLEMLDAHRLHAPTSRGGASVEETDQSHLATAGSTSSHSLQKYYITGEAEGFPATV
hERG potassium channel, sequence (Q12809 whole entry): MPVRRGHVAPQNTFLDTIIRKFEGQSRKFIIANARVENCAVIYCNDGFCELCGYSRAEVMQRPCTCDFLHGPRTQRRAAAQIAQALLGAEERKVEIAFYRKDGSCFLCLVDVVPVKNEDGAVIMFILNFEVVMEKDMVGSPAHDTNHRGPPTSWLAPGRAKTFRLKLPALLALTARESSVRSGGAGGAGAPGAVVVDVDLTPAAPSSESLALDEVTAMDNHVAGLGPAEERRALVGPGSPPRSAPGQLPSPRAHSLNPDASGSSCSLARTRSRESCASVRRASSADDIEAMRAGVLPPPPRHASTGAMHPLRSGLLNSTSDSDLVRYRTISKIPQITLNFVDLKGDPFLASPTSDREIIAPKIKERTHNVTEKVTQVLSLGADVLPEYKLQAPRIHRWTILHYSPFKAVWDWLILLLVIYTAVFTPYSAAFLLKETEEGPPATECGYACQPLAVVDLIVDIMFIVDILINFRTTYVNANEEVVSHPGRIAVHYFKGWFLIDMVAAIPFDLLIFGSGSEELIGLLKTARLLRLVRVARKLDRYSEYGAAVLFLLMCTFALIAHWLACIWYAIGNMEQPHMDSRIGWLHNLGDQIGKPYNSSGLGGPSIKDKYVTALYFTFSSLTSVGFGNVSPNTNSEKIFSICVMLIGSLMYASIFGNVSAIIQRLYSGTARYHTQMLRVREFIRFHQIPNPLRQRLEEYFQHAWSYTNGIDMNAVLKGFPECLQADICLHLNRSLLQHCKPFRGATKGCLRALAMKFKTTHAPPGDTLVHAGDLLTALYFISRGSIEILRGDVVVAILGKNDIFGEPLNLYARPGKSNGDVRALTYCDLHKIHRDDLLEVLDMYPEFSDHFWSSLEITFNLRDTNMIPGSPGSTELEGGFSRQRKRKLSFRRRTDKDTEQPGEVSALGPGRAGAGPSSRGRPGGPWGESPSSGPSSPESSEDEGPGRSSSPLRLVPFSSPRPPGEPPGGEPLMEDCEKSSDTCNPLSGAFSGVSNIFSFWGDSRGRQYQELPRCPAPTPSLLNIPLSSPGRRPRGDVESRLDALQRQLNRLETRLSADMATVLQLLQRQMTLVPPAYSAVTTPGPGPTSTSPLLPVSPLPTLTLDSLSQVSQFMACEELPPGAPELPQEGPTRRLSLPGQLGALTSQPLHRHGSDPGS

| SMILES | IC50 [1] [nM] | logD [2, 6] | solubility at 24 h [3, 7] [µM] | IC50 [4] [nM] | Human plasma protein binding (% free) [5] [% free] | IC50 (hERG potassium channel) [nM] | % downregulation (in brackets) [4] | logD ([2]; pH 7.4) | solubility at 24 h ([3]; aqueous buffer, 25° C.) [µM] |
| --- | --- | --- | --- | --- | --- | --- | --- | --- | --- |
| C[C@@H]1Cc2c([nH]c3ccccc23)[C@@H](c2cc(F)cc(OCCNCCCF)c2F)N1CC(F)(F)F [Example 31, N-(2-(2,5-difluoro-3-((1R,3R)-3-methyl-2-(2,2,2-trifluoroethyl)-2,3,4,9-tetrahydro-1H-pyrido[3,4-b]indol-1-yl)phenoxy)ethyl)-3-fluoropropan-1-amine] | 5.4 | 4.1 | 40 (≈ 20 µg/mL) | 7.2 | 0.41 | 11000 |  |  |  |
| C[C@@H]1Cc2c([nH]c3ccc(F)cc23)[C@@H](c2c(F)ccc(NCCNCCCF)c2F)N1CC(F)(F)CO [Example 89, 3-((1R,3R)-1-(2,6-difluoro-3-((2-((3-fluoropropyl)amino)ethyl)amino)phenyl)-6-fluoro-3-methyl-1,3,4,9-tetrahydro-2H-pyrido[3,4-b]indol-2-yl)-2,2-difluoropropan-1-ol] | 0.91 | 2.7 | 670 (≈ 354 µg/mL) | 0.14 | <3.4 | 6100 |  |  |  |
| Cc1c([C@@H]2c3[nH]c4ccccc4c3C[C@@H](C)N2CC(F)(F)CO)ccnc1OCCNCCCF [Example 103, 2,2-difluoro-3-((1R,3R)-1-(2-(2-((3-fluoropropyl)amino)ethoxy)-3-methylpyridin-4-yl)-3-methyl-1,3,4,9-tetrahydro-2H-pyrido[3,4-b]indol-2-yl)propan-1-ol] | 0.56 | 2.9 | 660 (≈ 324 µg/mL) | 0.084 | 2 | 4300 |  |  |  |
| COc1ccc(OCCNCCCF)c(F)c1[C@@H]1c2[nH]c3ccc(F)cc3c2C[C@@H](C)N1CC(F)(F)CO [Example 86, 2,2-difluoro-3-((1R,3R)-6-fluoro-1-(2-fluoro-3-(2-((3-fluoropropyl)amino)ethoxy)-6-methoxyphenyl)-3-methyl-1,3,4,9-tetrahydro-2H-pyrido[3,4-b]indol-2-yl)propan-1-ol] | 0.86 | 2.9 | 385 (≈ 209 µg/mL) | 0.17 | 2.6 | 3900 |  |  |  |
| COc1nnc(OCCNCCCF)cc1[C@@H]1c2[nH]c3ccccc3c2C[C@@H](C)N1CC(F)(F)F [Example 112, 3-fluoro-N-(2-((6-methoxy-5-((1R,3R)-3-methyl-2-(2,2,2-trifluoroethyl)-2,3,4,9-tetrahydro-1H-pyrido[3,4-b]indol-1-yl)pyridazin-3-yl)oxy)ethyl)propan-1-amine] | 2 | 3.2 | 92 (≈ 45.6 µg/mL) | 0.95 | 1.5 | 19000 |  |  |  |
| C[C@@H]1Cc2c([nH]c3ccccc23)[C@@](C)(c2cccc(OCCNCCCF)c2)N1CC(F)(F)F [Example 75, N-(2-(3-((1R,3R)-1,3-dimethyl-2-(2,2,2-trifluoroethyl)-2,3,4,9-tetrahydro-1H-pyrido[3,4-b]indol-1-yl)phenoxy)ethyl)-3-fluoropropan-1-amine] | 52 | 4.5 | 0.9 (≈ 0.43 µg/mL) | 58 | 0.08 | 7700 |  |  |  |
| Cc1c(OCCNCCCF)ncnc1[C@@H]1c2[nH]c3ccccc3c2C[C@@H](C)N1CC(F)(F)F [Example 114, 3-fluoro-N-(2-((5-methyl-6-((1S,3R)-3-methyl-2-(2,2,2-trifluoroethyl)-2,3,4,9-tetrahydro-1H-pyrido[3,4-b]indol-1-yl)pyrimidin-4-yl)oxy)ethyl)propan-1-amine] | 0.74 | 3.3 | 276 (≈ 132 µg/mL) | 0.2 | 1.7 | 5900 |  |  |  |
| COc1ccc(OCCNCCCF)cc1[C@@H]1c2[nH]c3ccccc3c2C[C@@H](C)N1C[C@H](C)C(=O)O [Example 53, (S)-3-((1R,3R)-1-(5-(2-((3-fluoropropyl)amino)ethoxy)-2-methoxyphenyl)-3-methyl-1,3,4,9-tetrahydro-2H-pyrido[3,4-b]indol-2-yl)-2-methylpropanoic acid] | 150 | 0.1 | > 1000 |  | 80 | > 40000 | — (40%) |  |  |
| Cc1c(OCCN(C)CCCF)ncc(F)c1[C@@H]1c2[nH]c3ccccc3c2C[C@@H](C)N1C(C)CC(=O)O (single isomer, unassigned) [Example 158] | 1.5 | 1.8 | > 1000 | 1 | 21 | > 40000 |  |  |  |
| COc1ccc(OCCNCCCF)c(F)c1[C@@H]1c2[nH]c3ccccc3c2C[C@@H](C)N1CC1(F)COC1 [Example 84, 3-fluoro-N-(2-(2-fluoro-3-((1R,3R)-2-((3-fluorooxetan-3-yl)methyl)-3-methyl-2,3,4,9-tetrahydro-1H-pyrido[3,4-b]indol-1-yl)-4-methoxyphenoxy)ethyl)propan-1-amine] | 0.94 | 2.4 | 640 (≈ 331 µg/mL) | 0.16 | 6 | 2800 | 83% |  |  |
| C[C@@H]1Cc2c([nH]c3ccccc23)[C@@H](c2c(F)ccc(OCCN(C)CCCF)c2F)N1CC1(F)COC1 [Example 154, N-(2-(2,4-difluoro-3-((1R,3R)-2-((3-fluorooxetan-3-yl)methyl)-3-methyl-2,3,4,9-tetrahydro-1H-pyrido[3,4-b]indol-1-yl)phenoxy)ethyl)-3-fluoro-N-methylpropan-1-amine] | 1.2 | 3.5 | 49 (≈ 25.5 µg/mL) | 0.89 | 2.7 | 4300 | 79% |  |  |
| C[C@@H]1Cc2c([nH]c3ccccc23)[C@@H](c2ccnc(OCCNCCCF)c2)N1CC(F)(F)F [Example 102, 3-fluoro-N-(2-((4-((1R,3R)-3-methyl-2-(2,2,2-trifluoroethyl)-2,3,4,9-tetrahydro-1H-pyrido[3,4-b]indol-1-yl)pyridin-2-yl)oxy)ethyl)propan-1-amine] | 2 | 3.8 | 251 (≈ 117 µg/mL) | 2.9 | 1.4 | 7200 |  |  |  |
| COCc1ccc(OCCNCCCF)cc1[C@@H]1c2[nH]c3ccccc3c2C[C@@H](C)N1CC(F)(F)F [Example 71, 3-fluoro-N-(2-(4-(methoxymethyl)-3-((1R,3R)-3-methyl-2-(2,2,2-trifluoroethyl)-2,3,4,9-tetrahydro-1H-pyrido[3,4-b]indol-1-yl)phenoxy)ethyl)propan-1-amine] | 3.4 |  |  | 2 | 0.44 | 5800 | 90% | 3.8 | < 1.6 |
| COc1ncc(OCCNCCCF)cc1[C@@H]1c2[nH]c3ccccc3c2C[C@@H](C)N1CC(F)(F)F [Example 36, 3-fluoro-N-(2-((6-methoxy-5-((1R,3R)-3-methyl-2-(2,2,2-trifluoroethyl)-2,3,4,9-tetrahydro-1H-pyrido[3,4-b]indol-1-yl)pyridin-3-yl)oxy)ethyl)propan-1-amine] | 2.6 | 3.5 | 183 (≈ 90.5 µg/mL) | 0.35 | 2 | 8700 |  |  |  |

Reference: patent publication US10221173B2, “Chemical compounds” (AstraZeneca AB, priority 2017, dated 2019)
